Experimental findings from patent publication US6002002A, “Anti-ischaemic hydroxylamine derivatives and pharmaceutical compositions” (Biorex Research & Development Co., priority 1995, dated 1999) are described below.

The subject of one test is anaesthetized rats. Kind of test: Reperfusion-induced arrhytmia (ventricular tachycardia and fibrillation) after LAD coronary occlusion in anaesthetized rats; survival. It counts as in vivo. As to conditions: rat, 1 mg/kg i.v. 5 minutes before pressing LAD coronary artery; 5 min ischaemia, 10 min reperfusion. How it is done:
The reperfusion-induced arrhytmia (ventricular tachycardia, KT and ventricuiar fibrillation, KF) was tested on anaesthetized rats. Myocardial ischaemia was induced by pressing the coronary artery for 5 minutes followed by 10 minutes reperfusion of the heart. The ECG was permanently monitored and the change of mean period of KT and KF by the effect of active materials was measured in the first 3 minutes of reperfusion. Survival was also monitored. The compounds were administered i.v. 5 minutes before pressing the LAD coronary artery in a dosis of 1 mg/kg.
Experimental results obtained by administering some representative compounds of the invention are listed below: […]

Test [1] relates to isolated rabbit thoracal aorta. Kind of test: in vitro vasorelaxation on isolated rabbit thoracal aorta. To be noted: Oryctolagus cuniculus. It counts as cell-based. How it is done:
The vasorelaxant effect of the compounds of the invention was tested in vitro on isolated rabbit thoracal aorta according to Am. J. Physiol. 257:, 1327-1333 (1989).

For another test, the system named is platelet aggregation. Kind of test: Inhibition of ADP-induced platelet aggregation in platelet-rich preparates from human venal blood. The class given is cell-based. As to conditions: concentration inhibiting the aggregation in 50%, read-out: antiaggregation EC50. How it is done:
To the samples sodium citrate was added and 10 minutes later centrifuged with 1000 rpm.

`O=C(NOCC(O)CN1CCCCC1)NC1CCCCC1` (stereo not shown) [Example 5, N-cyclohexyl-N'-(2-hydroxy-3-piperidino-propoxy)-urea] returned a Survival % in the test with anaesthetized rats of 67%.
Regarding `CCCNC(=O)NOCC(O)CN1CCCCC1` (stereo not shown) [Example 4, N-n-propyl-N'-(2-hydroxy-3-piperidino-propoxy)-urea], the Survival % in the test with anaesthetized rats turned out to be 67%.
As to `O=C(NOCC(O)CN1CCCCC1)Nc1cccc([N+](=O)[O-])c1` (stereo not shown) [Example 19, N-(3-nitrophenyl)-N'-(2-hydroxy-3-piperidino-propoxy)-urea], the 50% effective concentration (EC50) in test [1] worked out at 38 µM; with platelet aggregation, 340 µM.
For the molecule `CCCCCCNC(=O)NOCCCN1CCCCC1` [Example 16, N-n-hexyl-N'-(3-piperidino-propoxy)-urea], the 50% effective concentration (EC50) is 450 µM in test [1] and 710 µM with platelet aggregation. Besides, in the test with anaesthetized rats, the Survival % worked out at 83%.
In the test with anaesthetized rats, `CC(C)(C)N(CC(O)CONC(=O)NC1CCCCC1)C(=O)NC1CCCCC1` (stereo not shown) [Example 15, N-cyclohexyl-N'-{2-hydroxy-3-[N-(cyclohexyl-carbamoyl)-N-tert-butylamino]-propoxy}-urea] gave a Survival % of 60%.
On to `CCOC(=O)[N-]c1c[n+](N2CCOCC2)no1` [Molsidomin, reference compound], for which the 50% effective concentration (EC50) with platelet aggregation was 1500 µM.
Turning to `CCCCCCNC(=O)NOCC(O)CN1CCCCC1` (stereo not shown) [Example 6, N-n-hexyl-N'-(2-hydroxy-3-piperidino-propoxy)-urea], the results for the concentration giving a half-maximal response (EC50) (in test [1]; in the test with platelet aggregation) were 190 µM and 1500 µM, respectively. Further, in the test with anaesthetized rats, the Survival % was 100%.
Take `CC(C)COCC(CN(Cc1ccccc1)c1ccccc1)N1CCCC1` (stereo not shown) [Bepridyl, reference compound]: the midpoint of the response in test [1], the EC50, lay at 83 µM.
For `O=C(NOCC(O)CN1CCCCC1)Nc1cccc(Cl)c1` (stereo not shown) [Example 7, N-(3-chlorophenyl)-N'-(2-hydroxy-3-piperidino-propoxy)-urea], the figures for the half-maximal effective concentration (EC50) (in test [1]; with platelet aggregation) were 100 µM and 900 µM, respectively. This molecule also came in with a Survival % in the test with anaesthetized rats of 86%.
As for `CCCCCCCNC(=O)NOCC(O)CN1CCCCC1` (stereo not shown) [Example 23, N-heptyl-N'-(2-hydroxy-3-piperidino-propoxy)-urea], the concentration for a half-maximal effect (EC50) is 190 µM in test [1] and 430 µM in the test on platelet aggregation. Further, in the test on anaesthetized rats, the Survival % was 80%.

A word on the EC50: it is the concentration that produces a half-maximal response.
